Each block holds one molecule with its values, some of them ahead of it.
Key:
[1] = tested on: MX-1 cells; assay: In vitro proliferation inhibition (CellTiter-Glo), MX-1; format: cell-based; conditions: Homo sapiens, MX1; MX-1, triple-negative breast cancer, BRCA1 mutation; 6-10 days culture
Description: […]
(§1) Experimental data processing method: The luminescence signal value was used to calculate the inhibition rate. […]

[2] = tested on: OVCAR-3 cells; assay: In vitro proliferation inhibition (CellTiter-Glo), OVCAR-3; format: cell-based; conditions: Homo sapiens; OVCAR-3, ovarian cancer; 6-10 days culture
Description: […]
as §1

[3] = tested on: human colorectal cancer cell line DLD-1 BRCA2−/− xenograft tumor; assay: Subcutaneous xenograft tumor model of human colorectal cancer cell line DLD-1 BRCA2−/−; format: in vivo, BALB/c nude mice; conditions: DLD-1 BRCA2 deletion
Description: • 1. Experimental objective: To evaluate the in vivo efficacy of compound 1 in a subcutaneous xenograft tumor model of human colorectal cancer cell line DLD-1 BRCA2^−/− in nude mice. • 2. Reagent • RPMI-1640 medium (22400-089, Gibco), fetal bovine serum (FBS) (10099-141C, Gibco) • Phosphate buffer (PBS, 10010-023, Gibco), HPMC (D180HB4005, Shanghai Colorcon Coating Technology Ltd.) • 0.25% Trypsin-EDTA (25200-056, Gibco), Pen Strep (P/S) (15140-122, Gibco) • 3. Experimental operations and data processing • 3.1 Animals: BALB/c nude mice, 6-8 weeks old, female, purchased from the Laboratory Animal Business Department of Shanghai Institute of Planned Parenthood Research. • 3.2 Cell culture and cell suspension preparation • a. A vial of DLD-1 BRCA2^−/− cells was taken from a cell bank, the cells were thawed with RPMI-1640 medium (RPMI-1640+10% FBS), and the thawed cells were placed in a cell culture flask (with the cell type, date, the name of the culture operator, etc., being marked on the wall of the flask), which were placed in a CO2 incubator for culturing (wherein the temperature of the incubator was 37° C., and the CO2 concentration was 5%). • b. The cells were passaged every three days, and after passage, the cells were placed in the CO2 incubator to continue the culture. This process was repeated until the cell number met the requirements for in vivo efficacy. • c. The cultured cells were collected, counted using a full-automatic cell counter, and resuspended with PBS on the basis of the counting results to prepare a cell suspension (at a density of 5×10^7/mL), which was then placed in an ice box for later use. • 3.3 Cell inoculation • a. Before inoculation, the nude mice were marked with disposable universal ear tags for mice and rats. • b. At the time of inoculation, the cell suspension was mixed uniformly, 0.1-1 mL of the cell suspension was aspirated using a 1 mL syringe with air bubbles expelled, and the syringe was then placed on an ice bag for later use. • c. The nude mouse was secured with the left hand, the right dorsal area near the right shoulder (inoculation site) of the nude mouse was disinfected with a 75% alcohol cotton ball, and inoculation was initiated after 30 seconds. • d. The experimental nude mice were inoculated sequentially (0.1 mL of cell suspension per mouse). • 3.4 Tumor measurement, grouping and administration in tumor-bearing mice • a. Tumor was measured on days 10-18 after inoculation depending on the tumor growth, and the tumor size was calculated.
tumor volume (mm^3)=length (mm)×width (mm)×width (mm)/2 Tumor volume calculation: • b. According to the body weight of tumor-bearing mice and the size of the tumor, the mice were grouped by random grouping. • c. According to the grouping results, the test drug was started to be administered (administration method: oral administration; administration volume: 10 mL/kg; administration frequency: once/day; administration cycle: 28 days; vehicle: 0.5% HPMC). • d. Tumor measurement and weighing were performed twice a week after starting administration of test drugs. • e. The animals were euthanized at the end of the experiment. • f. Data processing was performed using software such as GraphPad Prism. The tumor inhibitory efficacy of the compound was evaluated by TGI (%) and ΔT/ΔC (%). ΔT/ΔC (%)=(T−T0)/(C−C0)×100, where T and C are the tumor volumes of the treatment group and the vehicle control group at the end of the experiment, respectively, and T0 and C0 are the tumor volumes of the treatment group and the vehicle control group at the beginning of the experiment, respectively. Tumor growth inhibition (TGI) (%)=100−ΔT/ΔC (%). Tumor growth inhibition (TGI) (%)=100−(T−T0)/T0×100 when tumor regression occurs • 4. Experimental results and conclusions

[4] = 100 mg/kg oral once/day, Day 28
[5] = 0.3 mg/kg oral once/day, Day 28

IC50 [2]: 319 ± 47 nM
SMILES: O=C(c1cc(Cc2n[nH]c(=O)c3ccccc23)ccc1F)N1CCN(C(=O)C2CC2)CC1 [Olaparib]
IC50 [1]: 246 ± 104 nM
Tumor volume (Mean ± SEM) ([3]; 100 mg/kg oral once/day, Day 0): 154 ± 13 mm^3
T/C [3, 4]: 63.43%
TGI [3, 4]: 40.81%
Tumor volume (Mean ± SEM) [3, 4]: 942 ± 112 mm^3

IC50 [2]: 5.1 ± 1.4 nM
SMILES: CCc1cc2ncc(CN3CCN(c4ccc(C(=O)NC)nc4)CC3)cc2[nH]c1=O [AZD5305]
IC50 [1]: 4.1 ± 1.6 nM
Tumor volume (Mean ± SEM) ([3]; 0.3 mg/kg oral once/day, Day 0): 154 ± 12 mm^3
T/C [3, 5]: 6.20%
TGI [3, 5]: 140.20%
Tumor volume (Mean ± SEM) [3, 5]: 92 ± 22 mm^3
